ChEMBL document CHEMBL5352395, “The discovery of novel antifungal phenylpyridines derivatives based on CYP53 binding model” (Eur J Med Chem, 2022)
In brackets after ≈: the same amount, converted by molar mass. Activity calls are given as the source filed them. No cut-off for these calls is given here.

Key:
Candida albicans [1] = assay: Induction of morphological changes in Candida albicans ATCC SC5314 assessed as disappearance of marginal region of fungal cells at 1 uM/ml incubated for 48 hrs by transmission electron microscopy; type: functional, organism-based
[2] = Toxicity in ip dosed mouse assessed as blood urea nitrogen level in plasma administered on day 2,4,6,8 and 10 (reference value: 7.4 +/ -0.6 mmol/L); type: organism-based; conditions: in vivo, 240 h, time 10 day
[3] = Inhibition of CYP53 in Candida albicans ATCC SC5314 assessed as unknown sterol level at 8 ug/ml incubated for 16 hrs by LC-MS analysis (Rvb=5.9%); type: ADME; parameters: scale not given: the % may be the effect or the level left; conditions: at 8 µg/mL
Candida albicans [4] = assay: Antifungal activity against Candida albicans ATCC SC5314 assessed as induction of ROS production by measuring increase in fluorescence intensity; type: functional, organism-based
Nakaseomyces glabratus = assay: Antifungal activity against Candida glabrata ATCC 0001 assessed as reduction in fungal growth; type: functional
Candida albicans [5] = assay: Induction of morphological changes in Candida albicans ATCC SC5314 assessed as leakage of endogenous substances in fungal cells at 1 uM/ml incubated for 72 hrs by transmission electron microscopy; type: functional, organism-based
[6] = Toxicity in ip dosed mouse assessed as pathological damage in heart administered on day 2,4,6,8,10 and measured on day 12 by H and E staining based analysis; type: organism-based; conditions: in vivo, 288 h, time 12 day
[7] = Toxicity in ip dosed mouse assessed as pathological damage in spleen administered on day 2,4,6,8,10 and measured on day 12 by H and E staining based analysis; type: organism-based; conditions: in vivo, 288 h, time 12 day
[8] = Inhibition of CYP53 in Candida albicans ATCC SC5314 assessed as benzoate level at 8 ug/ml incubated for 16 hrs by LC-MS analysis (Rvb=11.4%); type: ADME; parameters: scale not given: the % may be the effect or the level left; conditions: at 8 µg/mL
Candida albicans [9] = assay: Antifungal activity against Candida albicans 17# assessed as reduction in fungal growth; type: functional
Candida albicans [10] = assay: Induction of apoptosis in Candida albicans ATCC SC5314 assessed as late apoptotic cells incubated for 24 hrs by Annexin V-FITC/PI staining based flow cytometry method (reference value: 1.22%); type: functional
[11] = Toxicity in ip dosed mouse assessed as ALT level in plasma administered on day 2,4,6,8 and 10 (reference value: 35.9 +/- 4.6 IU/L); type: organism-based; conditions: in vivo, 240 h, time 10 day
Candida albicans [12] = assay: Induction of apoptosis in Candida albicans ATCC SC5314 assessed as mid apoptotic cells incubated for 24 hrs by Annexin V-FITC/PI staining based flow cytometry method (reference value: 1.03%); type: functional
Candida albicans [13] = assay: Antifungal activity against Candida albicans ATCC SC5314 infected in mouse assessed as reduction in fungal infection administered intraperitoneally on day 2,4,6,8 and 10 and measured after 12 days; type: functional, organism-based; conditions: route ip, time 12.0 day
Pichia kudriavzevii = assay: Antifungal activity against Candida krusei ATCC 6258 assessed as reduction in fungal growth; type: functional
Candida albicans [14] = assay: Antifungal activity against Candida albicans ATCC SC5314 assessed as reduction in fungal cell proliferation by measuring cell count (reference value: 216); type: functional
Candida albicans [15] = assay: Antifungal activity against Candida albicans ATCC SC5314 infected in mouse assessed as reduction in fungal growth in infection region administered intraperitoneally on day 2,4,6,8 and 10 and measured after 12 days by H and E/GMS staining based analysis; type: functional, organism-based; conditions: route ip, time 12.0 day
Candida albicans [16] = assay: Antifungal activity against Candida albicans ATCC SC5314 infected in mouse assessed as disappearance of nuclear aggregation phenomenon administered intraperitoneally on day 2,4,6,8 and 10 and measured after 12 days by H and E/GMS staining based analysis; type: functional, organism-based; conditions: route ip, time 12.0 day
Candida albicans [17] = assay: Induction of morphological changes in Candida albicans ATCC SC5314 assessed as reduction in cell wall thickness at 1 uM/ml incubated for 48 hrs by transmission electron microscopy; type: functional, organism-based
[18] = Toxicity in ip dosed mouse assessed as pathological damage in kidneys administered on day 2,4,6,8,10 and measured on day 12 by H and E staining based analysis; type: organism-based; conditions: in vivo, 288 h, time 12 day
[19] = Toxicity in ip dosed mouse assessed as pathological damage in liver administered on day 2,4,6,8,10 and measured on day 12 by H and E staining based analysis; type: organism-based; conditions: in vivo, 288 h, time 12 day
Candida albicans [20] = assay: Antifungal activity against Candida albicans 901 assessed as reduction in fungal growth; type: functional
Candida albicans [21] = assay: Induction of morphological changes in Candida albicans ATCC SC5314 assessed as rupture of cell membranes at 1 uM/ml incubated for 72 hrs by transmission electron microscopy; type: functional, organism-based
[22] = Toxicity in ip dosed mouse assessed as increase in body weight administered for 10 days; type: organism-based; conditions: in vivo, 240 h, time 10 day
Candida albicans [23] = assay: Antifungal activity against Candida albicans ATCC SC5314 infected in mouse assessed as recovery of regular cell distribution administered intraperitoneally on day 2,4,6,8 and 10 and measured after 12 days by H and E/GMS staining based analysis; type: functional, organism-based; conditions: route ip, time 12.0 day
Candida albicans [24] = assay: Induction of morphological changes in Candida albicans ATCC SC5314 assessed as appearance of cell wall and membrane remnants at 1 uM/ml incubated for 96 hrs by transmission electron microscopy; type: functional, organism-based
[25] = Toxicity in ip dosed mouse assessed as AST level in plasma administered on day 2,4,6,8 and 10 (reference value: 60.3 +/- 5.4 IU/L); type: organism-based; conditions: in vivo, 240 h, time 10 day
Aspergillus fumigatus = assay: Antifungal activity against Aspergillus fumigatus KM8001 assessed as reduction in fungal growth; type: functional
Candida albicans [26] = assay: Induction of mitochondrial membrane potential loss in Candida albicans ATCC SC5314 assessed as polarized cells at 1 uM/ml incubated for 24 hrs by JC-1 staining based flow cytometry analysis (reference value: 93.17%); type: functional
[27] = Toxicity in ip dosed mouse assessed as pathological damage in lungs administered on day 2,4,6,8,10 and measured on day 12 by H and E staining based analysis; type: organism-based; conditions: in vivo, 288 h, time 12 day
Candida albicans [28] = assay: Induction of morphological changes in Candida albicans ATCC SC5314 assessed as increase in cell permeability at 1 uM/ml incubated for 48 hrs by transmission electron microscopy; type: functional, organism-based
Candida albicans [29] = assay: Antifungal activity against Candida albicans ATCC 10231 assessed as reduction in fungal growth; type: functional
Candida albicans [30] = assay: Induction of apoptosis in Candida albicans ATCC SC5314 assessed as live cells incubated for 24 hrs by Annexin V-FITC/PI staining based flow cytometry method (reference value: 92.69%); type: functional
Candida albicans [31] = assay: Induction of apoptosis in Candida albicans ATCC SC5314 assessed as necrotic cells incubated for 24 hrs by Annexin V-FITC/PI staining based flow cytometry method (reference value: 5.36%); type: functional
[32] = Inhibition of CYP53 in Candida albicans ATCC SC5314 assessed as 4-hydroxybenzoate level at 8 ug/ml incubated for 16 hrs by LC-MS analysis (Rvb=82.7%); type: ADME; parameters: scale not given: the % may be the effect or the level left; conditions: at 8 µg/mL
Candida albicans [33] = assay: Antifungal activity against Candida albicans ATCC SC5314 assessed as reduction in fungal cell proliferation by measuring cell count (reference value: 235); type: functional

| Activity [3] [%] | MIC (Nakaseomyces glabratus) [µg/mL] | Activity [8] [%] | MIC (Candida albicans [9]) [µg/mL] | MIC (Pichia kudriavzevii) [µg/mL] | MIC (Candida albicans [20]) [µg/mL] | MIC (Aspergillus fumigatus) [µg/mL] | MIC (Candida albicans [29]) [µg/mL] | Structure (SMILES) | Activity [2] [mmol/L] | Activity [6] | Activity [7] | Activity (Candida albicans [10]) [%] | Activity [11] [IU/L] | Activity (Candida albicans [12]) [%] | Activity (Candida albicans [13]) | Activity (Candida albicans [15]) | Activity (Candida albicans [16]) | Activity [18] | Activity [19] | Activity [22] | other results |
| --- | --- | --- | --- | --- | --- | --- | --- | --- | --- | --- | --- | --- | --- | --- | --- | --- | --- | --- | --- | --- | --- |
| 6.4 | 1 (≈ 3.19 µM) | 64.1 | 2 (≈ 6.38 µM) | 0.5 (≈ 1.6 µM) | 2 (≈ 6.38 µM) | 4 (≈ 12.8 µM) | 1 (≈ 3.19 µM) | COC(=O)c1ccc(C(=O)NCC(=O)Nc2ccncc2)cc1 | 6.6 | Non-Toxic | Non-Toxic | 0.97 | 42.8 | 0.46 | Active | Active | Active | Non-Toxic | Non-Toxic | Toxic | Activity (Candida albicans [33]): 112; Activity (Candida albicans [23]): Active; Activity [25]: 68.4 IU/L; Activity (Candida albicans [26]): 65.59%; Activity [27]: Non-Toxic; Activity (Candida albicans [30]): 65.51%; Activity (Candida albicans [31]): 33.06%; Activity [32]: 29.5% |
| – | 2 (≈ 6.11 µM) | – | 4 (≈ 12.2 µM) | 1 (≈ 3.05 µM) | 1 (≈ 3.05 µM) | 4 (≈ 12.2 µM) | 0.5 (≈ 1.53 µM) | COC(=O)c1ccc(C(=O)NC(C)C(=O)Nc2ccncc2)cc1 (stereo unspecified) | – | – | – | – | – | – | – | – | – | – | – | – | – |

The remaining lines, values behind:

| Structure (SMILES) | Activity [3] [%] | MIC (Nakaseomyces glabratus) [µg/mL] | Activity [8] [%] | MIC (Candida albicans [9]) [µg/mL] | MIC (Pichia kudriavzevii) [µg/mL] | MIC (Candida albicans [20]) [µg/mL] | MIC (Aspergillus fumigatus) [µg/mL] | MIC (Candida albicans [29]) [µg/mL] | Activity [2] [mmol/L] | Activity [6] | Activity [7] | Activity (Candida albicans [10]) [%] | Activity [11] [IU/L] | Activity (Candida albicans [12]) [%] | Activity (Candida albicans [13]) | Activity (Candida albicans [15]) | Activity (Candida albicans [16]) | Activity [18] | Activity [19] | Activity [22] | other results |
| --- | --- | --- | --- | --- | --- | --- | --- | --- | --- | --- | --- | --- | --- | --- | --- | --- | --- | --- | --- | --- | --- |
| CC1CCN(C(=O)c2ccc(C(=O)NC(C)C(=O)Nc3ccncc3)cc2)CC1 (stereo unspecified) | 8.2 | 0.5 (≈ 1.27 µM) | 68.5 | 2 (≈ 5.07 µM) | 1 (≈ 2.54 µM) | 2 (≈ 5.07 µM) | 2 (≈ 5.07 µM) | 0.5 (≈ 1.27 µM) | 6.1 | Non-Toxic | Non-Toxic | 0.91 | 47.4 | 0.31 | Active | Active | Active | Non-Toxic | Non-Toxic | Toxic | Activity (Candida albicans [1]): Active; Activity (Candida albicans [4]): Active; Activity (Candida albicans [5]): Active; Activity (Candida albicans [14]): 123; Activity (Candida albicans [17]): Active; Activity (Candida albicans [21]): Active; Activity (Candida albicans [23]): Active; Activity (Candida albicans [24]): Active; Activity [25]: 53.7 IU/L; Activity (Candida albicans [26]): 68.3%; Activity [27]: Non-Toxic; Activity (Candida albicans [28]): Active; Activity (Candida albicans [30]): 58.17%; Activity (Candida albicans [31]): 40.61%; Activity [32]: 23.3% |
| CCC(C)C(NC(=O)c1ccc(C(=O)OC)cc1)C(=O)Nc1ccncc1 (stereo unspecified) | – | 4 (≈ 10.8 µM) | – | 2 (≈ 5.41 µM) | 2 (≈ 5.41 µM) | 4 (≈ 10.8 µM) | > 16 | 4 (≈ 10.8 µM) | – | – | – | – | – | – | – | – | – | – | – | – | – |
| CCC(C)C(NC(=O)c1ccc(C(=O)N2CCC(C)CC2)cc1)C(=O)Nc1ccncc1 (stereo unspecified) | – | 2 (≈ 4.58 µM) | – | 4 (≈ 9.16 µM) | 1 (≈ 2.29 µM) | 8 (≈ 18.3 µM) | 8 (≈ 18.3 µM) | 1 (≈ 2.29 µM) | – | – | – | – | – | – | – | – | – | – | – | – | – |
